# Reference: patent EP1119538B1, “DERIVATIVES OF PHENANTRENE FOR MEDICINAL USE AND A PROCESS FOR THEIR PREPARATION” (Ammar, Khodor, priority 1998, dated 2000)
# Tested on: intestinal adenocarcinoma cells (lineage CACO-2)
# Assay: Proliferation inhibition in intestinal adenocarcinoma cells, lineage CACO-2
# Assay type: cell-based
# Conditions: cell lineage CACO-2
# Procedure: Further research has recently been carried out using retinoic acid, sodium butyrate and the invention substances obtained as in Example 1. More specifically, tests were conducted on intestinal adenocarcinoma cells (lineages CACO-2 and HT-29) using isomers of molecular weight 256 - hereinafter referred to simply as "esters 256" - and using the compound of molecular weight 330 corresponding to formula IV, and mixtures mainly containing said compound - hereinafter referred to simply as "HHP" (hydroxy-hydro-phenanthrene). The results were as follows: • 1. The proliferation-inhibiting effect of HHP and butyrate on cell lineage CACO-2 is 80% as compared with 60% for retinoic acid. Inhibition in cell lineage HT-29 treated with HHP of 50µM concentration was 95% by the seventh day. • 2. […] HHP induces in the cell lineages a 3.5 times increase in the number of domes, indicating greater cell differentiation. • 6. […] In CACO-2, alpha 2,6, xyalyl transferase increases 3 times with respect to the control after two weeks' treatment with HHP.
row,Compound,proliferation-inhibiting effect
1,"CCCC(=O)[O-].[Na+] [butyrate, sodium butyrate, reference compound]",80%
2,"CC1=C(/C=C/C(C)=C/C=C/C(C)=C/C(=O)O)C(C)(C)CCC1 [retinoic acid, reference compound]",60%
